Source: US10509041B2, “Glucose derivative, and cell imaging method and imaging agent using said derivative” (HIROSAKI UNIVERSITY, priority 2014, dated 2019)

Assays:
[1] = Fluorescence spectrum (excitation and fluorescence maxima); format: physicochemical
From the text: The fluorescence spectra of CDG synthesized in (1) and QDG synthesized in (2) were compared with the fluorescence spectrum of 2-NBDLG (manufactured by Peptide Institute, Inc.).
The numeric values described above the graph denote the fluorescence maximum of CDG and QDG, respectively. It is evident that the fluorescence maximum was largely shifted to shorter wavelength as compared with the fluorescence maximum of 2-NBDLG present around 550 nm.

[2] = test system: MIN6 cell masses (spheroids); test: Fluorescent imaging of tumor cell masses (spheroids) of MIN6 cells with mixed fluorescent glucose derivative solutions; format: cell-based, mouse; settings: 3 minutes, 6 minutes after start of washout
Protocol: A fluorescent mixed solution containing 100 μM CDG, 100 μM 2-NBDLG, and 20 μM 2-TRLG (CDG/2-NBDLG/2-TRLG) was administered at 37° C. for 3 minutes to MIN6 cell masses (spheroids) at culture day 17, and fluorescent imaging was conducted.
10 μL of a culture solution containing MIN6 cells suspended at a density of 6×10^4 cells/mL was added dropwise onto each glass cover slip, and then, the glass cover slip was left standing for 40 minutes in an incubator for fixation to the glass surface. The cells were cultured by the addition of 3 mL of a culture solution (600 cells/slip). Spheroids were formed by continuing the culture for 15 to 17 days. Half the amount of the culture solution was replaced with a fresh one once every three days.
The MIN6 cells used were cells kindly provided by professor Junichi Miyazaki (Osaka University) and subcultured 6 to 10 times. Half the amount of the culture solution was replaced with a fresh one once every two days.
13.4 g of high glucose-containing Dulbecco's modified Eagle's Medium (DMEM-HG) (Sigma-Aldrich, #D5648), 3.4 g of NaHCO3, and 5 μL of 2-mercaptoethanol were dissolved in 1 L of ultrapure water, and the pH of the solution was adjusted to 7.30 to 7.35 in a CO2 incubator of 37° C. The culture solution was supplemented with fetal bovine serum (Hyclone, Cat# SH30070.03) at a final concentration of 10% and penicillin-streptomycin at a final concentration of 0.5%.
The whole amount of the 0.5 mg CDG vial was recovered using 0.73 mL in total of 10% DMSO and dissolved by addition to 7.0 ml of a KRB solution for image acquisition according to the method described in Non Patent Literature 2.
The whole amount of one 0.5 mg 2-NBDLG vial was dissolved in 7.3 mL of a KRB solution for image acquisition.
The CDG solution and the 2-NBDLG solution were mixed at a ratio of 1:1. The whole amount of the 0.2 mg 2-TRLG vial was recovered using 130 μL in total of DMSO and mixed with 13 ml of the CDG+2-NBDLG mixed solution according to the method described in Non Patent Literature 2 (final concentration: 100 μM CDG+100 μM 2-NBDLG+20 μM 2-TRLG mixed solution). […]
The glass cover slip with the cultured MIN6 cells was transferred into the KRB solution for image acquisition in a perfusion chamber loaded on a stage of a fluorescence microscope, followed by measurement. […]
The KRB solution for image acquisition was warmed in advance in an aluminum syringe heater and supplied to the perfusion chamber through hydrostatic pressure. […] Immediately before being introduced to the perfusion chamber, the solution was rewarmed via an inline heater so that the actually measured temperature of the perfusate in an observation region in the chamber was adjusted to 36±1° C. […]

| Compound | maximum excitation wavelength (Ex max) [1] [nm] | maximum fluorescence wavelength (Em max) [1] [nm] | uptake into cells of MIN6 spheroids, intracellular localization ([2]; 100 μM CLG+100 μM 2-NBDLG+20 μM 2-TRLG mixed solution, culture day 15) | uptake into cells of MIN6 spheroids, intracellular localization ([2]; 100 μM CDG+100 μM 2-NBDLG+20 μM 2-TRLG mixed solution, culture day 17) |
| --- | --- | --- | --- | --- |
| O=c1ccc2ccc(NC3C(O)OC(CO)[C@H](O)[C@H]3O)cc2o1 (stereo partly drawn) [CLG, 2-deoxy-2-(2-oxo-2H-chromen-7-yl)amino-L-glucose] | 366.5 | 454.5 | strongly taken not only into the cytoplasm but into the nucleus | – |
| O=c1ccc2ccc(NC3C(O)OC(CO)[C@@H](O)[C@@H]3O)cc2o1 (stereo partly drawn) [CDG, 2-deoxy-2-(2-oxo-2H-chromen-7-yl)amino-D-glucose] | 366.5 | 454.5 | – | not only taken into the cytoplasm but unexpectedly taken into the nucleus |
